Test results published in patent publication US20230085307A1, “PYRIDAZINONE COMPOUND AND HERBICIDE” (NISSAN CHEMICAL CORPORATION, priority 2019, published 2023).

Key:
wild oat [1] = experiment: Test Example 5: herbicidal effect by foliage application, plastic box (Table 20, symbol I); type: in vivo, wild oat (Avena fatua); conditions: foliage application, AAH 320 g/ha, three weeks after application
Outline: (§1)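 Post-emergence foliar test in sterilized diluvial soil. Compound applied as water-diluted emulsion at a predetermined rate to 14-day-old plants; evaluation at three weeks.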

redroot pigweed [2] = experiment: Test Example 5: herbicidal effect by foliage application, plastic box (Table 20, symbol N); type: in vivo, redroot pigweed (Amaranthus retroflexus); conditions: foliage application, AAH 320 g/ha, three weeks after application
Outline: as §1

barnyard grass [3] = experiment: Test Example 3: herbicidal effect by foliage application, Wagner pot (Table 18, symbol H); type: in vivo, barnyard grass (Echinochloa crus-galli); conditions: 320 g/ha
Outline: (§2)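 Plants were sown in alluvial soil held under 0.1–0.5 cm standing water and grown 14 days in a greenhouse at 25–30 °C. An emulsifiable formulation, water-diluted to the set dose, was then sprayed onto the foliage, and effects were scored three weeks later using previously defined criteria.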

windgrass [4] = experiment: Test Example 5: herbicidal effect by foliage application, plastic box (Table 20, symbol L); type: in vivo, windgrass (Apera spica-venti); conditions: foliage application, AAH 320 g/ha, three weeks after application
Outline: as §1

Italian ryegrass [5] = experiment: Test Example 5: herbicidal effect by foliage application, plastic box (Table 20, symbol K); type: in vivo, Italian ryegrass (Lolium multiflorum); conditions: foliage application, AAH 320 g/ha, three weeks after application
Outline: as §1

persian speedwell [6] = experiment: Test Example 4: herbicidal effect by soil treatment (Table 19, symbol R); type: in vivo, Persian speedwell (Veronica persica); conditions: AAH 320 g/ha
Outline: (§3)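 Emulsion of test compound, water-diluted to predetermined amount, sprayed on soil after sowing (seed depth ~1.5 cm, sterilized diluvial soil). Greenhouse, 25–30° C. Effect graded at three weeks post-spray.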

green foxtail [7] = experiment: Test Example 4: herbicidal effect by soil treatment (Table 19, symbol G); type: in vivo, green foxtail (Setaria viridis); conditions: AAH 320 g/ha
Outline: as §3

windgrass [8] = experiment: Test Example 4: herbicidal effect by soil treatment (Table 19, symbol L); type: in vivo, windgrass (Apera spica-venti); conditions: AAH 320 g/ha
Outline: as §3

southern crabgrass [9] = experiment: Test Example 5: herbicidal effect by foliage application, plastic box (Table 20, symbol F); type: in vivo, southern crabgrass (Digitaria ciliaris); conditions: foliage application, AAH 320 g/ha, three weeks after application
Outline: as §1

southern crabgrass [10] = experiment: Test Example 4: herbicidal effect by soil treatment (Table 19, symbol F); type: in vivo, southern crabgrass (Digitaria ciliaris); conditions: AAH 320 g/ha
Outline: as §3

blackgrass [11] = experiment: Test Example 4: herbicidal effect by soil treatment (Table 19, symbol J); type: in vivo, blackgrass (Alopecurus myosuroides); conditions: AAH 320 g/ha
Outline: as §3

barnyard grass [12] = experiment: Test Example 4: herbicidal effect by soil treatment (Table 19, symbol H); type: in vivo, barnyard grass (Echinochloa crus-galli); conditions: AAH 320 g/ha
Outline: as §3

green foxtail [13] = experiment: Test Example 5: herbicidal effect by foliage application, plastic box (Table 20, symbol G); type: in vivo, green foxtail (Setaria viridis); conditions: foliage application, AAH 320 g/ha, three weeks after application
Outline: as §1

lambsquarters [14] = experiment: Test Example 4: herbicidal effect by soil treatment (Table 19, symbol O); type: in vivo, lambsquarters (Chenopodium album); conditions: AAH 320 g/ha
Outline: as §3

chickweed [15] = experiment: Test Example 5: herbicidal effect by foliage application, plastic box (Table 20, symbol P); type: in vivo, common chickweed (Stellaria media); conditions: foliage application, AAH 320 g/ha, three weeks after application
Outline: as §1

redroot pigweed [16] = experiment: Test Example 4: herbicidal effect by soil treatment (Table 19, symbol N); type: in vivo, redroot pigweed (Amaranthus retroflexus); conditions: AAH 320 g/ha
Outline: as §3

rice flat sedge = experiment: Test Example 3: herbicidal effect by foliage application, Wagner pot (Table 18, symbol E); type: in vivo, rice flat sedge (Cyperus iria); conditions: 320 g/ha
Outline: as §2

blackgrass [17] = experiment: Test Example 5: herbicidal effect by foliage application, plastic box (Table 20, symbol J); type: in vivo, blackgrass (Alopecurus myosuroides); conditions: foliage application, AAH 320 g/ha, three weeks after application
Outline: as §1

wild oat [18] = experiment: Test Example 4: herbicidal effect by soil treatment (Table 19, symbol I); type: in vivo, wild oat (Avena fatua); conditions: AAH 320 g/ha
Outline: as §3

chickweed [19] = experiment: Test Example 4: herbicidal effect by soil treatment (Table 19, symbol P); type: in vivo, common chickweed (Stellaria media); conditions: AAH 320 g/ha
Outline: as §3

Italian ryegrass [20] = experiment: Test Example 4: herbicidal effect by soil treatment (Table 19, symbol K); type: in vivo, Italian ryegrass (Lolium multiflorum); conditions: AAH 320 g/ha
Outline: as §3

persian speedwell [21] = experiment: Test Example 5: herbicidal effect by foliage application, plastic box (Table 20, symbol R); type: in vivo, Persian speedwell (Veronica persica); conditions: foliage application, AAH 320 g/ha, three weeks after application
Outline: as §1

velvetleaf [22] = experiment: Test Example 4: herbicidal effect by soil treatment (Table 19, symbol M); type: in vivo, velvetleaf (Abutilon theophrasti); conditions: AAH 320 g/ha
Outline: as §3

lambsquarters [23] = experiment: Test Example 5: herbicidal effect by foliage application, plastic box (Table 20, symbol O); type: in vivo, lambsquarters (Chenopodium album); conditions: foliage application, AAH 320 g/ha, three weeks after application
Outline: as §1

velvetleaf [24] = experiment: Test Example 5: herbicidal effect by foliage application, plastic box (Table 20, symbol M); type: in vivo, velvetleaf (Abutilon theophrasti); conditions: foliage application, AAH 320 g/ha, three weeks after application
Outline: as §1

barnyard grass [25] = experiment: Test Example 5: herbicidal effect by foliage application, plastic box (Table 20, symbol H); type: in vivo, barnyard grass (Echinochloa crus-galli); conditions: foliage application, AAH 320 g/ha, three weeks after application
Outline: as §1

Chinese sprangletop = experiment: Test Example 3: herbicidal effect by foliage application, Wagner pot (Table 18, symbol D); type: in vivo, chinese sprangletop (Leptochloa chinensis); conditions: 320 g/ha
Outline: as §2

| Compound | I: wild oat, herbicidal effect (wild oat [1]) | N: redroot pigweed, herbicidal effect (redroot pigweed [2]) | herbicidal effect on H (barnyard grass), rating 0-5 (barnyard grass [3]) | L: windgrass, herbicidal effect (windgrass [4]) | K: Italian ryegrass, herbicidal effect (Italian ryegrass [5]) | R: persian speedwell, herbicidal effect rating (persian speedwell [6]) | G: green foxtail, herbicidal effect rating (green foxtail [7]) | L: windgrass, herbicidal effect rating (windgrass [8]) | F: southern crabgrass, herbicidal effect (southern crabgrass [9]) | F: southern crabgrass, herbicidal effect rating (southern crabgrass [10]) | J: blackgrass, herbicidal effect rating (blackgrass [11]) | H: barnyard grass, herbicidal effect rating (barnyard grass [12]) | G: green foxtail, herbicidal effect (green foxtail [13]) | O: lambsquarters, herbicidal effect rating (lambsquarters [14]) | P: chickweed, herbicidal effect (chickweed [15]) | N: redroot pigweed, herbicidal effect rating (redroot pigweed [16]) | herbicidal effect on E (rice flat sedge), rating 0-5 (rice flat sedge) | J: blackgrass, herbicidal effect (blackgrass [17]) | I: wild oat, herbicidal effect rating (wild oat [18]) | P: chickweed, herbicidal effect rating (chickweed [19]) | other results |
| --- | --- | --- | --- | --- | --- | --- | --- | --- | --- | --- | --- | --- | --- | --- | --- | --- | --- | --- | --- | --- | --- |
| C=Cc1ccc(-c2sc3ccccc3c2-c2c(O)c(C)nn(C)c2=O)cc1 [1-127] | 0 (Herbicidal rate of 5% or less (almost no effect)) | 5 (Herbicidal rate of 90% or more (almost completely withered)) | 0 (Herbicidal rate of 5% or less (almost no effect)) | 5 (Herbicidal rate of 90% or more (almost completely withered)) | 5 (Herbicidal rate of 90% or more (almost completely withered)) | 4 (Herbicidal rate of 70% or more and less than 90%) | 0 (Herbicidal rate of 5% or less (almost no effect)) | 0 (Herbicidal rate of 5% or less (almost no effect)) | 2 (Herbicidal rate of 20% or more and less than 40%) | 0 (Herbicidal rate of 5% or less (almost no effect)) | 0 (Herbicidal rate of 5% or less (almost no effect)) | 0 (Herbicidal rate of 5% or less (almost no effect)) | 4 (Herbicidal rate of 70% or more and less than 90%) | 4 (Herbicidal rate of 70% or more and less than 90%) | 5 (Herbicidal rate of 90% or more (almost completely withered)) | 5 (Herbicidal rate of 90% or more (almost completely withered)) | 5 (Herbicidal rate of 90% or more (almost completely withered)) | 1 (Herbicidal rate of 5% or more and less than 20%) | 0 (Herbicidal rate of 5% or less (almost no effect)) | 0 (Herbicidal rate of 5% or less (almost no effect)) | K: Italian ryegrass, herbicidal effect rating (Italian ryegrass [20]): 5 (Herbicidal rate of 90% or more (almost completely withered)); R: persian speedwell, herbicidal effect (persian speedwell [21]): 5 (Herbicidal rate of 90% or more (almost completely withered)); M: velvetleaf, herbicidal effect rating (velvetleaf [22]): 2 (Herbicidal rate of 20% or more and less than 40%); O: lambsquarters, herbicidal effect (lambsquarters [23]): 5 (Herbicidal rate of 90% or more (almost completely withered)); M: velvetleaf, herbicidal effect (velvetleaf [24]): 5 (Herbicidal rate of 90% or more (almost completely withered)); H: barnyard grass, herbicidal effect (barnyard grass [25]): 4 (Herbicidal rate of 70% or more and less than 90%); herbicidal effect on D (Chinese sprangletop), rating 0-5 (Chinese sprangletop): 3 (Herbicidal rate of 40% or more and less than 70%) |
| Cc1nn(C)c(=O)c(-c2c(-c3ccc(C(F)(F)F)cc3)sc3ccccc23)c1O [1-129] | 0 (Herbicidal rate of 5% or less (almost no effect)) | 5 (Herbicidal rate of 90% or more (almost completely withered)) | 3 (Herbicidal rate of 40% or more and less than 70%) | 0 (Herbicidal rate of 5% or less (almost no effect)) | 5 (Herbicidal rate of 90% or more (almost completely withered)) | 4 (Herbicidal rate of 70% or more and less than 90%) | 0 (Herbicidal rate of 5% or less (almost no effect)) | 0 (Herbicidal rate of 5% or less (almost no effect)) | 0 (Herbicidal rate of 5% or less (almost no effect)) | 0 (Herbicidal rate of 5% or less (almost no effect)) | 0 (Herbicidal rate of 5% or less (almost no effect)) | 0 (Herbicidal rate of 5% or less (almost no effect)) | 2 (Herbicidal rate of 20% or more and less than 40%) | 5 (Herbicidal rate of 90% or more (almost completely withered)) | 5 (Herbicidal rate of 90% or more (almost completely withered)) | 5 (Herbicidal rate of 90% or more (almost completely withered)) | 5 (Herbicidal rate of 90% or more (almost completely withered)) | 0 (Herbicidal rate of 5% or less (almost no effect)) | 0 (Herbicidal rate of 5% or less (almost no effect)) | 1 (Herbicidal rate of 5% or more and less than 20%) | K: Italian ryegrass, herbicidal effect rating (Italian ryegrass [20]): 5 (Herbicidal rate of 90% or more (almost completely withered)); R: persian speedwell, herbicidal effect (persian speedwell [21]): 5 (Herbicidal rate of 90% or more (almost completely withered)); M: velvetleaf, herbicidal effect rating (velvetleaf [22]): 2 (Herbicidal rate of 20% or more and less than 40%); O: lambsquarters, herbicidal effect (lambsquarters [23]): 4 (Herbicidal rate of 70% or more and less than 90%); M: velvetleaf, herbicidal effect (velvetleaf [24]): 5 (Herbicidal rate of 90% or more (almost completely withered)); H: barnyard grass, herbicidal effect (barnyard grass [25]): 3 (Herbicidal rate of 40% or more and less than 70%); herbicidal effect on D (Chinese sprangletop), rating 0-5 (Chinese sprangletop): 3 (Herbicidal rate of 40% or more and less than 70%) |
